Legend:
[1] = system: WT hepatocytes; assay: Glucose-induced ECAR in primary hepatocytes; format: cell-based, mouse; conditions: WT hepatocytes in GFS vs GF media, 1 hr carbohydrate starvation, then glucose 1 g/L
Method: (§1) Hepatocytes were isolated from male wild-type and CARKL overexpressing mice after the mice were sacrificed by hepatic in situ collagenase perfusion. After perfusion, the liver was quickly removed, minced, and filtered through a cell strainer (Fisher Scientific, Inc) into a 50 ml sterile tube. Hepatocytes in the resulting filtrate were purified from the nonparenchymal cells by centrifugation steps. The isolated hepatocytes were seeded into plates at a concentration of 0.25×10^6/ml in respective DMEM-media containing 10% FBS and indicated carbohydrate mixes at 3 g/L (glucose and fructose (GF), or glucose, fructose and sedoheptulose (GFS)) at least two days before experiments were performed.
(§2) The XF-Analyzer (Seahorse Bio.) was used to measure changes in cellular metabolism induced by different carbohydrates. Extracellular acidification rates (ECAR, mpH/min) and oxygen consumption rates (OCR, pmoles/min) were recorded in primary human adipocytes and primary murine hepatocytes according to the manufacture instructions. Briefly, cells were seeded in seahorse cell plates at a density of 10^4 cells per well for adipocytes and 0.5×10^5 cells per well for hepatocytes. […] Changes induced by the different carbohydrate sources were expressed as relative change in % to illustrate the effect of each carbon source.

[2] = system: bone marrow derived macrophages; assay: Cytokine secretion (ELISA) by bone marrow derived macrophages, basal and LPS-induced; format: cell-based, mouse; conditions: ELISA of supernatant over two days, GFS vs GF media
Method: (§3) Mouse bones were isolated from male wild-type and CARKL overexpressing mice and bone marrow wash flushed, washed and cleared from red blood cells by lysis, and subsequently differentiated in DMEM containing 25 mM glucose and 20 ng/ml M-CSF. After 4 days, cells for osteoclast differentiation were harvested and seeded in corning osteo assay plates with differentiation media (see below), and for primary bone marrow derived macrophages (BMDM) the medium was renewed and further supplemented with M-SCF for two days. Differentiated BMDM were then seeded in respective DMEM-media containing 10% FBS and indicated carbohydrate mixes at 3 g/L (glucose and fructose (GF), or glucose, fructose and sedoheptulose (GFS)) at least two days before experiments were performed.

[3] = system: primary murine hepatocytes; assay: IL-6 mRNA expression in primary murine hepatocytes in GF or GFS media; format: cell-based, mouse; conditions: hepatocytes pre-cultured two days with sedoheptulose (GFS) vs GF
Method: as §1
(§4) Briefly, total RNA was extracted and reverse-transcribed using commercial kits (QIAGEN, Applied Biosystems). Quantitative real-time PCRs were performed on an AbiPRISM 7900HT real-time cycler using iTaq SYBR Green Supermix with ROX (BioRad) to measure CARKL, adiponectin, UCP-1, TNFa, IL-6, MCP-1, and beta-actin expression as previously described (Haschemi et al., Cell Metab. 15 (2012), 813-826). Expression of target gene was normalized to beta-actin expression. Relative expression of target gene was calculated by the delta-delta CT method.

[4] = system: mature murine adipocytes; assay: Cytokine mRNA expression in mature murine adipocytes (ceiling culture) in GF or GFS media; format: cell-based, mouse; conditions: three days in sedoheptulose containing media vs glucose and fructose alone
Method: Anterior and posterior subcutaneous adipose tissue and epididymal white adipose tissue was isolated from transgenic CARKL-mice and wild-type littermate controls. Adipose tissue was digested as described above for the human sample. After centrifugation, the layer of floating mature adipocytes was removed and re-centrifuged at 100 rcf for 10 minutes. 150 μL of packed adipocytes were cultured under a floating coverslip in six-well plates, in DMEM/F12, 15% calf serum (PAA). 24 hours after isolation, the wells were washed twice with PBS and the medium was exchanged to DMEM/F12 with a total carbohydrate load of 3 g/L, containing 1.5 g/L glucose and fructose, or 1 g/L each of glucose, fructose and sedoheptulose, respectively. Three days later, the cells were harvested for RNA isolation using TRIreagent (Sigma).
as §4

[5] = system: primary human adipocytes; assay: Oxygen consumption rate and extracellular acidification rate (XF-Analyzer) in primary human adipocytes; format: cell-based; conditions: human adipocytes differentiated and cultured in sedoheptulose containing media vs controls
Method: Stromal vascular fraction cells (SVFs) from subcutaneous white adipose tissue of a patient undergoing abdominal surgery were isolated as described before (Lindroos et al, Cell Metab. (2013), Jul. 2; 18(1):62-74.). Briefly, adipose tissue was digested with Collagenase II (Worthington) and filtered. SVFs were separated from mature adipocytes by centrifugation, followed by the lysis of erythrocytes in the SVF-fraction (Buffer EL, Qiagen). The purified SVFs were cultured in DMEM/F12, 10% FBS (Gibco, Life Technologies). As soon as the cells reached confluence, they were washed with DMEM/F12 w/o glucose (Biowest) and the medium was replaced by DMEM/F12 with a total carbohydrate load of 3 g/L, containing 1.5 g/L glucose and fructose or 1 g/L each of glucose, fructose, and sedoheptulose, respectively. […]
as §2, with “instructions.” for “instructions. Briefly, cells were seeded in seahorse cell plates at a density of 10^4 cells per well for adipocytes and 0.5×10^5 cells per well for hepatocytes.”

[6] = system: sedoheptulose kinase (CARKL); assay: Sedoheptulose kinase assay (ADP Quest, ADP formation); format: biochemical; conditions: constant amount of recombinant CARKL, constant ATP 150 μM, increased doses of sedoheptulose
From the text: The ADP Quest Assay (DiscoveRx) was used to indirectly measure […] formation by ADP accumulation over time according to the manufacture instructions. Recombinant sedoheptulose kinase was previously produced in E. coli and purified by affinity purification ([…] et al., Cell Metab. 15 (2012), 813-826).

[7] = system: primary bone marrow derived macrophages; assay: Basal cytokine mRNA expression in primary bone marrow derived macrophages in GF or GFS media; format: cell-based, mouse; conditions: pre-cultured two days in GFS vs GF media
Method: as §3, §4

[8] = target: T1, Glucose-6-phosphate dehydrogenase (G6PD) (Mus musculus, UniProt Q00612); assay: Glucose-6-phosphate dehydrogenase activity assay (enzyme histochemistry) in hepatocytes; format: cell-based; conditions: WT cells incubated in cell culture media with sedoheptulose; data not shown
T1 construct: Hepatocytes were isolated from male wild-type and CARKL overexpressing mice; endogenous in cells; host or cells: primary mouse hepatocytes (WT and CARKL-transgenic)
Method: as §1
Cells were grown on polystyrene vessel tissue culture treated glass slides, snap frozen in liquid nitrogen and kept at −80° C. The enzyme histochemical procedure was based on the tetrazolium salt method as described by Van Noorden and Frederiks. […] The medium was freshly prepared immediately before incubation. Control reactions additionally contained 40 mM glucosamine-6-phosphate. Cells were incubated at room temperature for 15 minutes under continuous mixing by orbital shaker. After incubation, cells were washed 3×5 minutes in 60° C. phosphate buffered saline, dried, and mounted in glycerol gelatin, and photographed within one day at ×10 magnification.

[9] = system: primary human adipocytes; assay: mRNA expression (RT-PCR) in primary human adipocytes differentiated in GF or GFS media; format: cell-based; conditions: GFS (1 g/L each sugar) vs GF (1.5 g/L each), eight days differentiation
Method: Stromal vascular fraction cells (SVFs) from subcutaneous white adipose tissue of a patient undergoing abdominal surgery were isolated as described before (Lindroos et al, Cell Metab. (2013), Jul. 2; 18(1):62-74.). Briefly, adipose tissue was digested with Collagenase II (Worthington) and filtered. SVFs were separated from mature adipocytes by centrifugation, followed by the lysis of erythrocytes in the SVF-fraction (Buffer EL, Qiagen). The purified SVFs were cultured in DMEM/F12, 10% FBS (Gibco, Life Technologies). […] Two days after confluence (day 0), differentiation was induced by adding 1 μM dexamethasone, 1.74 μM insulin, 5 μM troglitazone, […], 17 μM pantothenic acid and 33 μM biotin. After two days, IBMX and dexamethasone were omitted, while insulin and troglitazone were removed on day 4. 50% of the medium was replaced on day 6. Two days later, the cells were harvested for RNA isolation (RNeasy mini kit, Qiagen). Briefly, total RNA was extracted and reverse-transcribed using commercial kits (QIAGEN, Applied Biosystems). Quantitative real-time PCRs were performed on an […] real-time cycler using iTaq SYBR Green Supermix with ROX (BioRad) to measure CARKL, adiponectin, UCP-1, TNFa, IL-6, MCP-1, and beta-actin expression as previously described ([…] et al., Cell Metab. 15 (2012), 813-826). […] Relative expression of target gene was calculated by the delta-delta CT method.

[10] = system: osteoclasts; assay: In vitro bone resorption assay (osteoclast pit formation); format: cell-based, mouse
Method: as §3, with “performed. Osteoclast precursor cells (bone marrow cells treated with 20 ng/ml M-CSF for 4 days) were plated in 24-well Corning Osteo Assay plate in the presence of 10 ng/ml M-CSF and 100 ng/ml RANKL in alpha-MEM medium containing 10% FBS and 3 g/L either glucose and fructose (GF), or glucose, fructose, and sedoheptulose (GFS). The Medium was renewed every third day. […] Each well was entirely photographed by TissueFax with an ×20 objective and all visible resorption pits were counted and analysed blinded.” for “performed.”

[11] = Diet-derived sedoheptulose uptake in humans (serum GC-MS before/after carrot meal); format: in vivo, human; conditions: two hours after meal of mainly steamed carrots (~700 g) vs overnight fasted, n=4
From the text: Fresh carrots with an Austrian “organic-certificate” were sliced into small pieces and snap-frozen in liquid nitrogen. The same procedure was applied to leaves freshly harvested from indoor-grown Sedum Spectabile plants. Three samples of each tissue were pooled and homogenized to powder by glass-beads. The carbohydrate rich fractions of the samples were isolated by 20% H2O and 80% MeOH extraction solution spiked with 13C standards and processed for standard gas-chromatography coupled to mass spectrometry (GC-MS). Glucose and sedoheptulose were identified by their individual masses and their relative amount was derived from the peak area of each individual analyte normalized to 13C content. Glucose and sedoheptulose were also measured in equal volumes of serum from overnight fasted or carrot fed individuals. The carrots were steamed and some olive-oil, salt and pepper were used for flavour. Two hours before and two hours after the carrot containing meal human serum was prepared in VACUETTE® Z Serum Sep tubes from blood. Serum samples were processed as previously described and also analyzed by GC-MS as detailed above and in Ruiz-Matute A I et al., Chromatogr B Analyt Technol Biomed Life Sci. (2011) May 15 879(17-18).

T1 sequence (Q00612 whole entry): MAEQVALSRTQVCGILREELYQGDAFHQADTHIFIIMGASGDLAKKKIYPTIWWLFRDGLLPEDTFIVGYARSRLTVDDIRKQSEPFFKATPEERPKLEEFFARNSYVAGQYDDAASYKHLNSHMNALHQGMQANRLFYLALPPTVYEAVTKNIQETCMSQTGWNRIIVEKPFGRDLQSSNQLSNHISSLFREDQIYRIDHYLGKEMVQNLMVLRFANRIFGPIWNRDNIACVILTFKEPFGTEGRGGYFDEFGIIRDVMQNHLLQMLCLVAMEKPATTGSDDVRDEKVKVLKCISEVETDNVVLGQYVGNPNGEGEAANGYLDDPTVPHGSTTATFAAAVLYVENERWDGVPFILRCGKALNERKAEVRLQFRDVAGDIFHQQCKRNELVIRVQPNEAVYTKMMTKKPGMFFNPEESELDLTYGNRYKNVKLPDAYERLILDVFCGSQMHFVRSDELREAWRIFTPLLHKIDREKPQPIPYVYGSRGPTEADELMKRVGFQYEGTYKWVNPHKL

- sedoheptulose turnover rate (ADP formation) [6]: enhanced
- G6PD activity distribution (re-localization of G6PD and reduced activity in the inner space of the cells, as in CARKL overexpressing cells) [8]: same phenotype was achieved
- sedoheptulose kinase CARKL mRNA expression [9]: increase
- increase in sedoheptulose serum levels [11]: approximately two-fold
SMILES: O=C(CO)[C@@H](O)[C@H](O)[C@H](O)[C@H](O)CO [sedoheptulose, Sedoheptulose]
- glucose-induced ECAR [1]: reduced
- basal IL-6 secretion [2]: blocked
- basal TNFa secretion [2]: blocked
- IL-6 expression [3]: less
- IL-6 mRNA [4]: less
- TNFa mRNA [4]: less
- cellular oxygen consumption rate (OCR) [5]: increased
- extracellular acidification rate (ECAR) [5]: comparable
- basal IL-6 mRNA expression [7]: blocked
- basal TNFa mRNA expression [7]: blocked
- pit formation by osteoclasts ([10]; 7 days in GFS vs GF media, Corning Osteo Assay plates): reduced
- larger resorption-pits ([10]; WT osteoclasts cultured in GF or GFS media): found only in the absence of sedoheptulose

Reference: patent publication US11026443B2, “Use of sedoheptulose as a nutritional supplement” (C7 SUGAR GMBH, priority 2013, dated 2021)
